Results from the supplement of paper PMC10949913.

Experiments:
Conditions in all cases: 48 h
CU-ACC1 [1] = assay: area under concentration-response curve (viability) (AUC (a.u.)); higher = less active
In short: (§1)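 Three adrenocortical carcinoma cell lines in 1,536-well plates received 23 nL of each library compound at 11 concentrations and were read with CellTiter-Glo after 48 h, with 15 minutes at room temperature before measuring luminescence. Vehicle and empty-well controls served for per-plate normalisation. AC50 and area under the curve were extracted from fitted concentration-response curves, discarding all curve classes other than inhibitory or non-responding.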

NCI-H295R [2] = assay: as above
In short: as §1

CU-ACC2 [3] = assay: as above
In short: as §1

CU-ACC1 [4] = assay: AC50 viability; higher = less potent
In short: as §1

NCI-H295R [5] = assay: AC50 viability; higher = less potent
In short: as §1

CU-ACC2 [6] = assay: AC50 viability; higher = less potent
In short: as §1

## CNCCn1c(=O)c2cc(OC)c(OC)cc2c2cnc3cc4c(cc3c21)OCO4
CU-ACC1 [1]
  area under concentration-response curve: 422
NCI-H295R [2]
  area under concentration-response curve: 553
CU-ACC2 [3]
  area under concentration-response curve: 537
CU-ACC1 [4]
  AC50 viability: 0.0959 µM
NCI-H295R [5]
  AC50 viability: 0.152 µM
CU-ACC2 [6]
  AC50 viability: 0.135 µM

## CCCCNc1ncc2c(-c3ccc(F)cc3)nn(C[C@H]3CC[C@H](N)CC3)c2n1
CU-ACC1 [1]
  area under concentration-response curve: 523
NCI-H295R [2]
  area under concentration-response curve: 550
CU-ACC2 [3]
  area under concentration-response curve: 611
CU-ACC1 [4]
  AC50 viability: 14.4 µM
NCI-H295R [5]
  AC50 viability: 14.4 µM
CU-ACC2 [6]
  AC50 viability: 14.4 µM

## CCN1CCN(Cc2ccc(Nc3ncc(F)c(-c4cc(F)c5nc(C)n(C(C)C)c5c4)n3)nc2)CC1
CU-ACC1 [1]
  area under concentration-response curve: 463
NCI-H295R [2]
  area under concentration-response curve: 480
CU-ACC2 [3]
  area under concentration-response curve: 362
CU-ACC1 [4]
  AC50 viability: 18.6 µM
NCI-H295R [5]
  AC50 viability: 18.6 µM
CU-ACC2 [6]
  AC50 viability: 8.33 µM

## CC(=O)Nc1ccc([C@H](C)C(=O)Nc2ncc(C(C)C)s2)cc1
CU-ACC1 [1]
  area under concentration-response curve: 448
NCI-H295R [2]
  area under concentration-response curve: 485
CU-ACC2 [3]
  area under concentration-response curve: 376
CU-ACC1 [4]
  AC50 viability: 9.34 µM
NCI-H295R [5]
  AC50 viability: 18.6 µM
CU-ACC2 [6]
  AC50 viability: 5.25 µM

## C=CC(=O)N1CCC(Oc2cc3c(Nc4ccc(Cl)c(Cl)c4F)ncnc3cc2OC)CC1
CU-ACC1 [1]
  area under concentration-response curve: 400
NCI-H295R [2]
  area under concentration-response curve: 440
CU-ACC2 [3]
  area under concentration-response curve: 532
CU-ACC1 [4]
  AC50 viability: 4.68 µM
NCI-H295R [5]
  AC50 viability: 20.9 µM
CU-ACC2 [6]
  AC50 viability: 20.9 µM

## COc1cc2c(Nc3ccc(Cl)c(Cl)c3F)ncnc2cc1OC[C@@H]1C[C@@H]2CN(C)C[C@@H]2C1
CU-ACC1 [1]
  area under concentration-response curve: 407
NCI-H295R [2]
  area under concentration-response curve: 430
CU-ACC2 [3]
  area under concentration-response curve: 449
CU-ACC1 [4]
  AC50 viability: 9.34 µM
NCI-H295R [5]
  AC50 viability: 14.8 µM
CU-ACC2 [6]
  AC50 viability: 13.2 µM

## CNC1CCC(N(Cc2cccc(-c3ccncc3)c2)C(=O)c2sc3c(F)ccc(F)c3c2Cl)CC1 (stereo not drawn)
CU-ACC1 [1]
  area under concentration-response curve: 443
NCI-H295R [2]
  area under concentration-response curve: 448
CU-ACC2 [3]
  area under concentration-response curve: 499
CU-ACC1 [4]
  AC50 viability: 8.33 µM
NCI-H295R [5]
  AC50 viability: 9.34 µM
CU-ACC2 [6]
  AC50 viability: 9.34 µM

## C[N]1N=C(C)C2=C1OC(=C(/C#N)C2C3=CC=C(C=C3)C(F)(F)F)/N (stereo not drawn)
CU-ACC1 [1]
  area under concentration-response curve: 460
NCI-H295R [2]
  area under concentration-response curve: 479
CU-ACC2 [3]
  area under concentration-response curve: 422
CU-ACC1 [4]
  AC50 viability: 18.6 µM
NCI-H295R [5]
  AC50 viability: 18.6 µM
CU-ACC2 [6]
  AC50 viability: 18.6 µM

## Nc1ccccc1NC(=O)c1ccc(CNC(=O)OCc2cccnc2)cc1
CU-ACC1 [1]
  area under concentration-response curve: 422
NCI-H295R [2]
  area under concentration-response curve: 440
CU-ACC2 [3]
  area under concentration-response curve: 523
CU-ACC1 [4]
  AC50 viability: 3.72 µM
NCI-H295R [5]
  AC50 viability: 3.72 µM
CU-ACC2 [6]
  AC50 viability: 14.8 µM

## Cc1cc(CN2CCN(c3c(Br)cnc4[nH]c(-c5ccc(N6CCN(C)CC6)cc5)nc34)CC2)no1
CU-ACC1 [1]
  area under concentration-response curve: 459
NCI-H295R [2]
  area under concentration-response curve: 425
CU-ACC2 [3]
  area under concentration-response curve: 478
CU-ACC1 [4]
  AC50 viability: 0.934 µM
NCI-H295R [5]
  AC50 viability: 26.3 µM
CU-ACC2 [6]
  AC50 viability: 20.9 µM

## NC1(Cc2ccc(Cl)cc2)CCN(c2ncnc3[nH]ccc23)CC1
CU-ACC1 [1]
  area under concentration-response curve: 444
NCI-H295R [2]
  area under concentration-response curve: 461
CU-ACC2 [3]
  area under concentration-response curve: 540
CU-ACC1 [4]
  AC50 viability: 16.6 µM
NCI-H295R [5]
  AC50 viability: 14.8 µM
CU-ACC2 [6]
  AC50 viability: 18.6 µM

## NC(=O)c1cnc(N[C@@H]2CCCC[C@@H]2N)nc1Nc1cccc(-n2nccn2)c1
CU-ACC1 [1]
  area under concentration-response curve: 492
NCI-H295R [2]
  area under concentration-response curve: 519
CU-ACC2 [3]
  area under concentration-response curve: 572
CU-ACC1 [4]
  AC50 viability: 23.5 µM
NCI-H295R [5]
  AC50 viability: 20.9 µM
CU-ACC2 [6]
  AC50 viability: 20.9 µM

## COCCn1c2c([n+](Cc3cnccn3)c1C)C(=O)c1ccccc1C2=O
CU-ACC1 [1]
  area under concentration-response curve: 246
NCI-H295R [2]
  area under concentration-response curve: 341
CU-ACC2 [3]
  area under concentration-response curve: 278
CU-ACC1 [4]
  AC50 viability: 1.66 µM
NCI-H295R [5]
  AC50 viability: 3.32 µM
CU-ACC2 [6]
  AC50 viability: 0.132 µM
